Common to all, as to assay: inhibition of tumour cell growth, NCI panel, 48 h
The test system of test [1] is MALME-3M melanoma.
Test [2] has as its system BT-549 breast.
The subject of test [3] is SK-MEL-28 melanoma.
Test [4] concerns CAKI-1 renal.
The subject of test [5] is NCI-H522 lung.
Test [6] deals with NCI-H460 lung.
The test system of test [7] is OVCAR-3 ovarian.
The test system of test [8] is HOP-62 NSCLC.
Test [9] has as its system NCI-H23 lung.
The subject of test [10] is SR leukemia.

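Cultured in 96-well plates, cells were exposed to test compound for 48 hours across five concentrations. TGI denotes the concentration required for complete inhibition of growth.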 Where only a bound is given, the exact number is not on record here.

With `COc1ccc2nc3cc(Cl)ccc3c(NCCCN(Cc3cc(OC)c(OC)c(OC)c3)Cc3cc(OC)c(OC)c(OC)c3)c2c1`, the TGI in test [1] worked out at 44.1 µM; in [2], 28 µM; in test [3], 33.2 µM; in [4], 30.3 µM; in [5], 25.4 µM; in [6], 23.6 µM. Moreover, the TGI in [7] amounted to 34.6 µM; in test [8], 24.4 µM.

Take `CC(C)(C)OC(=O)NCCCCC(N)C(N)=O` (stereo not drawn): the TGI in test [1], in [9], in test [2], in test [3], in [4] and in [5] was more than 100 µM each time. The TGI in test [6], in test [7] and in test [8] was more than 100 µM each time.

Consider `COc1cc2c[n+](C)c3c4cc(OC)c(OC)cc4c(OC)cc3c2cc1OC`, for which the TGI in test [1] is 9.44 µM; in test [9], 36.8 µM; in [2], 57 µM; in [3] it was more than 81.9 µM; in test [4], more than 100 µM; in [5], 2.03 µM. Further, the TGI in test [6] is more than 100 µM; in test [7], more than 34.6 µM; in test [8], more than 100 µM.

Turning to `COc1ccc(C2=CC(c3ccccc3)n3nnnc3N2)cc1` (stereo not drawn), the TGI in test [9], in [4], in [5], in [6], in [7] and in test [8] was more than 100 µM throughout. In addition, the TGI in test [10] is more than 100 µM.

As for `CC1(C)CC(=O)C(CCC(=O)/C=C/c2ccccc2)C(=O)C1`, the TGI in [1], in [9], in test [2], in test [3], in [4] and in test [5] was more than 100 µM in each case. Also, the TGI in test [6], in [7] and in test [8] was more than 100 µM each time.

As for `CCC(C)n1c(C)nc2c1C(=O)c1ccccc1C2=O` (stereo not drawn), the TGI in test [1] is 77.9 µM; in [9], more than 100 µM; in test [3] it was more than 100 µM; in test [5] it was more than 100 µM; in test [6], 50.8 µM; in test [7], more than 100 µM. The TGI in test [8] and in test [10] was more than 100 µM each time.

Regarding `CC(=N\N)/C(C)=N/N=C(C)/C(C)=N/N=C(C)/C(C)=N/N=C(C)/C(C)=N/N`, the TGI in test [1], in test [9], in test [2], in test [3], in test [4] and in test [5] was more than 100 µM in each case. Moreover, the TGI in test [6], in test [7] and in test [8] was more than 100 µM throughout.

With `O=C1/C(=C/c2ccccc2)CCCC1CN1CCCCC1` (stereo not drawn), the TGI in test [1] came out at 3.97 µM; in test [9], 16.7 µM; in test [2], 8.91 µM; in test [3], 3.77 µM; in [4], 3.2 µM; in test [5] it was 2.05 µM. For the same molecule, the values for the TGI in [6], in test [7] and in test [8] were 32.4 µM, 3.24 µM and 35.5 µM, respectively.

Take `Cc1ccc(S(=O)(=O)N2CCCN(S(=O)(=O)c3ccc(C)cc3)CCN(S(=O)(=O)c3ccc(C)cc3)CCCSCC2)cc1`: the TGI in test [9], in [2], in test [3], in test [6], in [7] and in test [8] was more than 100 µM each time.

Take `CCc1ccc(N=Cc2cc(OC)c(OC)c(OC)c2)cc1`: the TGI in [1], in test [9], in test [3], in test [4], in test [5] and in test [6] was more than 100 µM throughout. Moreover, the TGI in [7] and in test [8] was more than 100 µM throughout.

Regarding `Cc1ccccc1C(=O)c1c(O)c2c(c(O)c1Br)CCCC2`, the TGI in test [1] came to 24.7 µM; in [9], 58.4 µM; in test [4], 35.9 µM; in test [5], 23.4 µM; in test [6] it was 56.6 µM; in test [7], 27.1 µM. The TGI is more than 100 µM in [8] and 44.5 µM in test [10].

`COC(=O)c1c2c(cc3c1CC1(Cc4cc5c(c(C=O)c4C1)CCCC5)C3)CCCC2` (stereo not drawn): the TGI in test [1], in test [9], in test [5], in test [7], in [8] and in test [10] was more than 100 µM throughout.

Consider `OCC1OC(n2nc(-c3ccccc3)nc2-c2cnccn2)C(O)C(O)C1O` (stereo not drawn), for which the TGI in test [9], in test [2], in test [3], in test [5], in test [6] and in [7] was more than 100 µM in each case. This molecule gave a TGI in test [8] of more than 100 µM.

For the molecule `CC(=O)OC12/C(=N/O)CCCCCC1c1ccccc12` (stereo not drawn), the TGI was more than 100 µM in test [1]; more than 100 µM in [9]; more than 100 µM in test [3]; 98.9 µM in [5]; more than 100 µM in test [6]; more than 100 µM in test [8]. The TGI in test [10] was more than 100 µM.

With `CN(C)CCOc1cccc2c1C(=O)c1ccccc1C2=O`, the TGI in test [1] was 26.5 µM; in [9], 24 µM; in test [3], 28.6 µM; in [4], 43.8 µM; in test [5] it was 20.5 µM; in test [6], 19.2 µM. Besides, the TGI came out at 64 µM in test [7] and 30.9 µM in test [8].

The values above are taken from PubChem BioAssay (NCI).
